Reference: patent US8426447B2, “Spiro-tricyclic ring compounds as beta-secretase modulators and methods of use” (Amgen Inc., priority 2008, dated 2013)

Experiments:
[1] = target: T1, BACE1 (Homo sapiens, UniProt P56817); assay: In Vitro BACE Cell-based Assay (HEK cell assay): Aβ40 in conditioned medium of cells stably expressing Amyloid Precursor Protein, sandwich ELISA
In short: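 Read-out is time-resolved fluorescence of Aβ40 in supernatant, captured by pAb40 and detected with biotinylated 6E10 plus Streptavidin-Europium. Cells stably expressing APP received compounds for 24 h over 10 concentrations starting at 100 μM or 10 μM, final DMSO 0.1%.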

[2] = target: T1, BACE1; assay: In Vitro Enzymatic BACE FRET (Fluorescence Resonance Energy Transfer) Assay; type: biochemical
In short: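 Buffer 0.05 M acetate pH 4.2 with 10% DMSO final and 100 uM genapol; reaction started with 50 nM FRET peptide substrate (fluorophore/quencher flanking BACE cleavage site), incubated one hour. Stopped with Tris buffer raising pH to neutrality, then fluorescence read.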

[3] = Table IV, class symbols, read-out: HEK cell assay
[4] = Table IV, class symbols, read-out: BACE1 FRET assay
[5] = Table III, IC50's in uM ranges, read-out: HEK cell assay
[6] = Table III, IC50's in uM ranges, read-out: BACE1 FRET assay
[7] = HEK cells, read-out: HEK cell assay
[8] = HEK cell-based assay, Aβ40 in conditioned medium, IC50 class symbols, read-out: HEK cell assay
[9] = in vitro BACE FRET enzyme assay, IC50 class symbols, read-out: BACE1 FRET assay
[10] = Table 1, Aβ40, 24 h incubation, read-out: HEK cell assay
[11] = Table 1, read-out: BACE1 FRET assay
[12] = Table II, Aβ40, 24 h incubation, read-out: HEK cell assay
[13] = Table II, read-out: BACE1 FRET assay

T1 sequence (P56817 46-501, species assumed): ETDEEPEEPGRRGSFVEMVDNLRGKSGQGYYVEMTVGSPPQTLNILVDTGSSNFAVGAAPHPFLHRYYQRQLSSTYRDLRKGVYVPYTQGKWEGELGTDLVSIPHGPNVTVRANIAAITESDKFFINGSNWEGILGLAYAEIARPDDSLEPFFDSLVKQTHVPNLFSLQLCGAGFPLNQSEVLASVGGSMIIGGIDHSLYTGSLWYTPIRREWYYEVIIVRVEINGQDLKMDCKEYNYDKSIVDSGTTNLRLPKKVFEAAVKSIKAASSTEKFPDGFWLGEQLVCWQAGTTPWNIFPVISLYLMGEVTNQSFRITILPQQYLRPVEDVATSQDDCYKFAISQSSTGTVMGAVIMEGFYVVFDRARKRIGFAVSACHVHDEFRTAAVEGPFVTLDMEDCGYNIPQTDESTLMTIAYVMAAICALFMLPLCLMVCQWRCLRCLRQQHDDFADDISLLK

Structure (SMILES): CC(C)c1nc(-c2ccc3c(c2)[C@@]2(COC(N)=N2)c2cc(OCC(C)(C)C)ccc2O3)cs1 [compound 832]
- IC50 [1, 3]: 1 to 5 µM
- IC50 [2, 4]: 0.1 to 1 µM

Structure (SMILES): NC1=N[C@@]2(CO1)c1cc(Br)ccc1Oc1ncccc12 [compound 601]
- IC50 [1, 3]: > 5 µM
- IC50 [2, 4]: > 5 µM

Structure (SMILES): COc1cc(F)c2c(c1)[C@]1(COC(N)=N1)c1cc(-c3cncnc3)ccc1O2 [compound 581]
- IC50 [1, 3]: < 0.1 µM
- IC50 [2, 4]: < 0.1 µM

Structure (SMILES): COC(C)(C)COc1ccc2c(c1)[C@@]1(COC(N)=N1)c1cc(-c3ccccc3)cnc1O2 [compound 818]
- IC50 [1, 3]: < 0.1 µM
- IC50 [2, 4]: < 0.1 µM

Structure (SMILES): COC(C)(C)C#Cc1ccc2c(c1)[C@@]1(COC(N)=N1)c1cc(-c3cccnc3)cnc1O2 [208a]
- IC50 [1, 5]: 0.1 to 1 µM
- IC50 [2, 6]: 0.1 to 1 µM

Structure (SMILES): NC1=N[C@@]2(CO1)c1cc(-c3ccccc3F)ccc1Oc1cnc(C3=CCOCC3)cc12 [compound 426]
- IC50 [1, 7]: 0.1 to 1 µM
- IC50 ([2]; read-out: BACE1 FRET assay): < 0.1 µM

Structure (SMILES): CC(C)(C)COc1ccc2c(c1)[C@]1(COC(N)=N1)c1cc(-c3cccnc3Cl)ccc1O2 [compound 913]
- IC50 [1, 3]: 0.1 to 1 µM
- IC50 [2, 4]: < 0.1 µM

Structure (SMILES): CC1(COc2ccc3c(c2)[C@@]2(COC(N)=N2)c2cc(C#CC4CC4)cnc2O3)COC1 [compound 967]
- IC50 ([1]; read-out: HEK cell assay): 0.1 to 1 µM
- IC50 ([2]; read-out: BACE1 FRET assay): < 0.1 µM

Structure (SMILES): COC(C)(C)C#Cc1cnc2c(c1)[C@@]1(COC(N)=N1)c1cc(-c3cnccn3)ccc1O2 [compound 694]
- IC50 ([1]; read-out: HEK cell assay): > 5 µM
- IC50 ([2]; read-out: BACE1 FRET assay): 1 to 5 µM

Structure (SMILES): N#Cc1cccc(-c2ccc3c(c2)[C@]2(COC(N)=N2)c2cccnc2O3)c1 [compound 610]
- IC50 [1, 3]: 1 to 5 µM
- IC50 [2, 4]: 0.1 to 1 µM

Structure (SMILES): CC(C)(C)COc1ccc2c(c1)[C@]1(COC(N)=N1)c1cc(C3CC3(C)C)ccc1O2 (some centres unmarked) [compound 754]
- IC50 ([1]; read-out: HEK cell assay): 0.1 to 1 µM
- IC50 ([2]; read-out: BACE1 FRET assay): < 0.1 µM

Structure (SMILES): COc1cncc(-c2ccc3c(c2)[C@@]2(COC(N)=N2)c2cc(C#CC(C)(C)OC)cnc2O3)c1 [compound 602]
- IC50 [1, 3]: < 0.1 µM
- IC50 [2, 4]: < 0.1 µM

Structure (SMILES): COC(=O)/C=C/c1ccc2c(c1)[C@]1(COC(N)=N1)c1cc(-c3cccnc3)ccc1O2 [compound 947]
- IC50 ([1]; read-out: HEK cell assay): 0.1 to 1 µM
- IC50 ([2]; read-out: BACE1 FRET assay): 0.1 to 1 µM

Structure (SMILES): CC1(COc2cnc3c(c2)[C@]2(COC(N)=N2)c2cc(-c4cccc(F)c4F)ccc2O3)COC1 [compound 413]
- IC50 [1, 8]: < 0.1 µM
- IC50 [2, 9]: < 0.1 µM

Structure (SMILES): COc1ccc2c(c1)[C@]1(COC(N)=N1)c1cc(NC(=O)C3CCCO3)ccc1O2 (some centres unmarked) [compound 614]
- IC50 [1, 3]: 0.1 to 1 µM
- IC50 [2, 4]: 0.1 to 1 µM

Structure (SMILES): NC1=N[C@@]2(CO1)c1cc(-c3cccc(F)c3)ccc1Oc1cnc(-c3cccc(F)c3)cc12 [compound 366]
- IC50 [1, 8]: 0.1 to 1 µM
- IC50 [2, 9]: < 0.1 µM

Structure (SMILES): NC1=N[C@@]2(CO1)c1cc(-c3cc(F)ccc3F)ccc1Oc1ncc(N3C[C@@H]4C[C@H]3CO4)cc12 [compound 453]
- IC50 [1, 7]: < 0.1 µM
- IC50 ([2]; read-out: BACE1 FRET assay): < 0.1 µM

Structure (SMILES): CC(C)(C)C#Cc1ccc2c(n1)[C@@]1(COC(N)=N1)c1cc(-c3cncnc3)ccc1O2 [compound 528]
- IC50 [1, 7]: < 0.1 µM
- IC50 ([2]; read-out: BACE1 FRET assay): < 0.1 µM

Structure (SMILES): NC1=N[C@]2(CO1)c1cc(-c3cccnc3F)ccc1Oc1c(F)cccc12 [compound 574]
- IC50 [1, 3]: 0.1 to 1 µM
- IC50 [2, 4]: < 0.1 µM

Structure (SMILES): CC(C)(C)COc1cnc2c(c1)[C@]1(COC(N)=N1)c1cc(-c3cncc(F)c3)ccc1O2 [compound 389]
- IC50 [1, 8]: < 0.1 µM
- IC50 [2, 9]: < 0.1 µM

Structure (SMILES): NC1=N[C@]2(CO1)c1cc(C3=CCOCC3)ccc1Oc1cnc(-c3cccnc3F)cc12 [compound 497]
- IC50 [1, 7]: < 0.1 µM
- IC50 ([2]; read-out: BACE1 FRET assay): < 0.1 µM

Structure (SMILES): NC1=N[C@@]2(CO1)c1cc(Br)ccc1Oc1c(F)cccc12 [compound 558]
- IC50 [1, 3]: > 5 µM
- IC50 [2, 4]: 1 to 5 µM

Structure (SMILES): NC1=N[C@]2(CO1)c1cc(CCC3(O)CCC3)ccc1Oc1ccc(-c3cncnc3)cc12 [compound 797]
- IC50 [1, 3]: < 0.1 µM
- IC50 [2, 4]: < 0.1 µM

Structure (SMILES): NC1=N[C@@]2(CO1)c1cc(-c3cccnc3)ccc1Oc1cnc(C3CCOCC3)cc12 [compound 801]
- IC50 [1, 3]: < 0.1 µM
- IC50 [2, 4]: < 0.1 µM

Structure (SMILES): CC(C)Cc1cc2c3c(ccc2o1)Oc1ncc(-c2cncnc2)cc1[C@]31COC(N)=N1 [compound 792]
- IC50 [1, 3]: 1 to 5 µM
- IC50 [2, 4]: 0.1 to 1 µM

Structure (SMILES): COc1cc2c(cc1F)Oc1ccc(-c3cncnc3)cc1[C@]21COC(N)=N1 [154a]
- IC50 [1, 5]: > 5 µM
- IC50 [2, 6]: > 5 µM

Structure (SMILES): COc1cccc(-c2ccc3c(c2)C2(COC(N)=N2)c2ccc(C)cc2O3)c1F (centres unmarked) [Example 30, 2′-(2-fluoro-3-methoxyphenyl)-6′-methylspiro[1,3-oxazole-4,9′-xanthen]-2-amine]
- IC50 [1, 10]: > 5 µM
- IC50 [2, 11]: > 5 µM

Structure (SMILES): CC(C)(C)CCOc1ccc2c(c1)[C@]1(COC(N)=N1)c1cc(-c3cncnc3)ccc1O2 [Example 70, (4S)-2′-(3,3-dimethylbutoxy)-7′-(5-pyrimidinyl)spiro[1,3-oxazole-4,9′-xanthen]-2-amine]
- IC50 [1, 12]: 0.1 to 1 µM
- IC50 [2, 13]: < 0.1 µM

Structure (SMILES): COC(C)(C)COc1ccc2c(c1)[C@]1(COC(N)=N1)c1cc(C#CC3CC3)ccc1O2 [compound 982]
- IC50 ([1]; read-out: HEK cell assay): 0.1 to 1 µM
- IC50 ([2]; read-out: BACE1 FRET assay): < 0.1 µM

Structure (SMILES): COC(C)(C)C#Cc1ccc2c(c1)[C@@]1(COC(N)=N1)c1cc(-c3cccnc3)cnc1O2 [compound 179]
- IC50 [1, 5]: 0.1 to 1 µM
- IC50 [2, 6]: < 0.1 µM

Structure (SMILES): CC1(COc2cnc3c(c2)[C@]2(COC(N)=N2)c2cc(-c4c(F)cccc4F)ccc2O3)COC1 [compound 411]
- IC50 [1, 8]: < 0.1 µM
- IC50 [2, 9]: < 0.1 µM

Structure (SMILES): COc1ccc2c(c1)[C@]1(N=C(N)O[C@@H]1C)c1cc(-c3cncnc3)ccc1O2 (single isomer, unassigned) [Example 125c]
- IC50 [1, 5]: > 5 µM
- IC50 [2, 6]: > 5 µM

Structure (SMILES): Cc1ccc(-c2ccc3c(c2)[C@]2(COC(N)=N2)c2cc(-c4cncnc4)ccc2O3)s1 [compound 820]
- IC50 [1, 3]: < 0.1 µM
- IC50 [2, 4]: < 0.1 µM

Structure (SMILES): COc1ccc2c(c1)C1(COC(N)=N1)c1cc(-c3cccnc3Cl)ccc1O2 (centres unmarked) [Example 21, 2′-(2-chloro-3-pyridinyl)-7′-methoxyspiro[1,3-oxazole-4,9′-xanthen]-2-amine trifluoroacetic acid]
- IC50 [1, 10]: > 5 µM
- IC50 [2, 11]: 1 to 5 µM

Structure (SMILES): CC(C)(C)COc1cnc2c(c1)[C@]1(COC(N)=N1)c1cc(-c3ccc(F)nc3)ccc1O2 [compound 470]
- IC50 [1, 7]: < 0.1 µM
- IC50 ([2]; read-out: BACE1 FRET assay): < 0.1 µM

Structure (SMILES): CC(C)(C)COc1ccc2c(n1)[C@@]1(COC(N)=N1)c1cc(Br)ccc1O2 [compound 736]
- IC50 ([1]; read-out: HEK cell assay): > 5 µM
- IC50 ([2]; read-out: BACE1 FRET assay): 1 to 5 µM

Structure (SMILES): NC1=N[C@@]2(CO1)c1cc(-c3cccnc3F)ccc1Oc1cnc(-c3ccccn3)cc12 [compound 516]
- IC50 ([1]; HEK cell assay (uM), HEK cells): < 0.1 µM
- IC50 ([2]; BACE1 FRET assay (uM)): < 0.1 µM

Structure (SMILES): CC1(COc2cc3c(cc2F)Oc2ccc(-c4cncnc4)cc2[C@]32COC(N)=N2)COC1 [compound 713]
- IC50 ([1]; read-out: HEK cell assay): 0.1 to 1 µM
- IC50 ([2]; read-out: BACE1 FRET assay): 0.1 to 1 µM

Structure (SMILES): CC(C)(C)COc1ccc2c(c1)[C@]1(COC(N)=N1)c1cc(-c3cc(Cl)ccc3F)cnc1O2 [Example 91, (5R)-3-(5-chloro-2-fluorophenyl)-7-(2,2-dimethylpropoxy)spiro[chromeno[2,3-b]pyridine-5,4′-[1,3]oxazol]-2′-amine]
- IC50 [1, 12]: 0.1 to 1 µM
- IC50 [2, 13]: < 0.1 µM

Structure (SMILES): C[C@@H]1OC(N)=N[C@]12c1cc(OCC(C)(C)C)ccc1Oc1ccc(-c3cncnc3)cc12 [126a, (4R,5S)-2′-(2,2-dimethylpropoxy)-5-methyl-7′-(5-pyrimidinyl)spiro[1,3-oxazole-4,9′-xanthen]-2-amine]
- IC50 [1, 5]: 1 to 5 µM
- IC50 [2, 6]: 0.1 to 1 µM

Structure (SMILES): CC(C)(C)OCCOc1ccc2c(c1)[C@]1(COC(N)=N1)c1cc(-c3cccnc3)ccc1O2 [compound 159]
- IC50 [1, 5]: 0.1 to 1 µM
- IC50 [2, 6]: < 0.1 µM

Structure (SMILES): NC1=N[C@@]2(CO1)c1cc(-c3cccnc3)ccc1Oc1ccc(N3CCOCC3)cc12 [compound 764]
- IC50 ([1]; read-out: HEK cell assay): < 0.1 µM
- IC50 ([2]; read-out: BACE1 FRET assay): < 0.1 µM

Structure (SMILES): NC1=N[C@@]2(CO1)c1cc(-c3cccnc3)ccc1Oc1ccc(Cl)nc12 [compound 988]
- IC50 ([1]; read-out: HEK cell assay): 1 to 5 µM
- IC50 ([2]; read-out: BACE1 FRET assay): 1 to 5 µM

Structure (SMILES): NC1=NC2(CO1)c1cc(C3CC3)ccc1Oc1ccc(C3CC3)cc12 [compound 760]
- IC50 ([1]; read-out: HEK cell assay): 1 to 5 µM
- IC50 ([2]; read-out: BACE1 FRET assay): 1 to 5 µM

Structure (SMILES): CC(C)(C)C#Cc1cnc2c(c1)[C@@]1(COC(N)=N1)c1cc(-c3cccnc3)ccc1O2 [185a]
- IC50 [1, 5]: 1 to 5 µM
- IC50 [2, 6]: 0.1 to 1 µM

Structure (SMILES): COc1ccc2c(c1)[C@]1(COC(N)=N1)c1cc(NC(=O)c3ccccn3)ccc1O2 [compound 615]
- IC50 [1, 3]: 0.1 to 1 µM
- IC50 [2, 4]: 0.1 to 1 µM
